Molecular target: T1, hNK2 receptor (Homo sapiens, UniProt P21452)
T1 construct: host or cells: CHO cells
T1 sequence (P21452 1-398): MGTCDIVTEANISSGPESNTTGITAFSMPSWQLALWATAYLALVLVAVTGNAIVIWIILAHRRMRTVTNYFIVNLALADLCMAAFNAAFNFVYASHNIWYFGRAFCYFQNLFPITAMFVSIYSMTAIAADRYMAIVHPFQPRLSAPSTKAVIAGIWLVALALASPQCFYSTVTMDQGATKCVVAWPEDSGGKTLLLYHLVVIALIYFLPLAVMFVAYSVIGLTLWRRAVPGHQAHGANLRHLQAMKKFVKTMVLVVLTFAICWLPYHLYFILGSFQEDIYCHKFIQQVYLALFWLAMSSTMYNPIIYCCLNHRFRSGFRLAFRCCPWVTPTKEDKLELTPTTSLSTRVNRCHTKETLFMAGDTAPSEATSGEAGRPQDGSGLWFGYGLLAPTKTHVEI
Assay: Radio-ligand ([125I]-NKA) receptor binding inhibitory activity using membrane fraction of hNK2 receptor-expressing CHO cell
Conditions: membrane fraction of hNK2 receptor-expressing CHO cells, 25° C., 30 min
How it was run: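 Membranes from hNK2-expressing CHO cells (20 μg/mL suspension) incubated with test compound and [125I]-NKA ([…] solution as added) in Tris-HCl pH 7.4 with BSA, protease inhibitors, 3 mM MnCl2, 25 °C, 30 min. Bound radioactivity by GF/C filtration and scintillation; inhibition expressed relative to specific binding (total minus unlabeled-NKA non-specific).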

IC50 [nM]	Compound
< 1	COC[C@@H]1Nc2ccccc2[C@H]2[C@@H]1CCN2C(=O)[C@H]1CCCC[C@H]1NC(=O)Nc1ccccc1 [Example 204, N-((1R,2S)-2-{[(3aR,4R,9bR)-4-(Methoxymethyl)-2,3,3a,4,5,9b-hexahydro-1H-pyrrolo[3,2-c]quinolin-1-yl]carbonyl}cyclohexyl)-N′-phenylurea]
< 1	COC[C@@H]1Nc2ccccc2[C@H]2[C@@H]1CCN2C(=O)[C@H]1CCCC[C@H]1NC(=O)Nc1ccc(F)cc1 [Example 205, N-(4-Fluorophenyl)-N′-((1R,2S)-2-{[(3aR,4R,9bR)-4-(methoxymethyl)-2,3,3a,4,5,9b-hexahydro-1H-pyrrolo[3,2-c]quinolin-1-yl]carbonyl}cyclohexyl)urea]
< 1	COC[C@@H]1Nc2ccccc2[C@H]2[C@@H]1CCN2C(=O)[C@H]1CCCC[C@H]1NC(=O)Nc1ccc(OC)cc1 [Example 206, N-((1R,2S)-2-{[(3aR,4R,9bR)-4-(Methoxymethyl)-2,3,3a,4,5,9b-hexahydro-1H-pyrrolo[3,2-c]quinolin-1-yl]carbonyl}cyclohexyl)-N′-(4-methoxyphenyl)urea]
< 1	COC[C@@H]1Nc2ccccc2[C@H]2[C@@H]1CCN2C(=O)[C@H]1CCCC[C@H]1NC(=O)Nc1ccc2c(c1)OCO2 [Example 208, N-1,3-Benzodioxol-5-yl-N′-((1R,2S)-2-{[(3aR,4R,9bR)-4-(methoxymethyl)-2,3,3a,4,5,9b-hexahydro-1H-pyrrolo[3,2-c]quinolin-1-yl]carbonyl}cyclohexyl)urea]
< 1	COC[C@@H]1Nc2ccccc2[C@H]2[C@@H]1CCN2C(=O)[C@H]1CCCC[C@H]1NC(=O)/C=C/c1ccc(C(F)(F)F)cc1 [Example 209]
< 1	COC[C@@H]1Nc2ccccc2[C@H]2[C@@H]1CCN2C(=O)[C@H]1CCCC[C@H]1NC(=O)c1ccc(C(F)(F)F)cc1 [Example 210, N-((1R,2S)-2-{[(3aR,4R,9bR)-4-(Methoxymethyl)-2,3,3a,4,5,9b-hexahydro-1H-pyrrolo[3,2-c]quinolin-1-yl]carbonyl}cyclohexyl)-4-(trifluoromethyl)benzamide]
< 10	COC[C@@H]1Nc2ccccc2[C@H]2[C@@H]1CCN2C(=O)[C@H]1CCCC[C@H]1NC(=O)c1ccc(C)nc1 [Example 211, N-((1R,2S)-2-{[(3aR,4R,9bR)-4-(Methoxymethyl)-2,3,3a,4,5,9b-hexahydro-1H-pyrrolo[3,2-c]quinolin-1-yl]carbonyl}cyclohexyl)-6-methylnicotinamide]
< 1	COC[C@@H]1Nc2ccccc2[C@H]2[C@@H]1CCN2C(=O)[C@H]1CCCC[C@H]1NC(=O)c1ccc(F)c(F)c1 [Example 212, 3,4-Difluoro-N-((1R,2S)-2-{[(3aR,4R,9bR)-4-(methoxymethyl)-2,3,3a,4,5,9b-hexahydro-1H-pyrrolo[3,2-c]quinolin-1-yl]carbonyl}cyclohexyl)benzamide]
< 1	COC[C@@H]1Nc2ccccc2[C@H]2[C@@H]1CCN2C(=O)[C@H]1CCCC[C@H]1NC(=O)c1ccc(N(C)C)cc1 [Example 213, 4-(Dimethylamino)-N-((1R,2S)-2-{[(3aR,4R,9bR)-4-(methoxymethyl)-2,3,3a,4,5,9b-hexahydro-1H-pyrrolo[3,2-c]quinolin-1-yl]carbonyl}cyclohexyl)benzamide]
< 1	COC[C@@H]1Nc2ccccc2[C@H]2[C@@H]1CCN2C(=O)[C@H]1CCCC[C@H]1NC(=O)c1ccc(OC(F)(F)F)cc1 [Example 215, N-((1R,2S)-2-{[(3aR,4R,9bR)-4-(Methoxymethyl)-2,3,3a,4,5,9b-hexahydro-1H-pyrrolo[3,2-c]quinolin-1-yl]carbonyl}cyclohexyl)-4-(trifluoromethoxy)benzamide]
< 10	COC[C@@H]1Nc2ccccc2[C@H]2[C@@H]1CCN2C(=O)[C@H]1CCCC[C@H]1NC(=O)c1ccc(C#N)cc1 [Example 216, 4-Cyano-N-((1R,2S)-2-{[(3aR,4R,9bR)-4-(methoxymethyl)-2,3,3a,4,5,9b-hexahydro-1H-pyrrolo[3,2-c]quinolin-1-yl]carbonyl}cyclohexyl)benzamide]
< 1	COC[C@@H]1Nc2ccccc2[C@H]2[C@@H]1CCN2C(=O)[C@H]1CCCC[C@H]1NC(=O)Nc1ccc(C#N)cc1 [Example 217, N-(Cyanophenyl)-N′-((1R,2S)-2-{[(3aR,4R,9bR)-4-(methoxymethyl)-2,3,3a,4,5,9b-hexahydro-1H-pyrrolo[3,2-c]quinolin-1-yl]carbonyl}cyclohexyl)urea]
< 1	COC[C@@H]1Nc2ccccc2[C@H]2[C@@H]1CCN2C(=O)[C@H]1CCCC[C@H]1NC(=O)c1ccc2[nH]ccc2c1 [Example 218, N-((1R,2S)-2-{[(3aR,4R,9bR)-4-(Methoxymethyl)-2,3,3a,4,5,9b-hexahydro-1H-pyrrolo[3,2-c]quinolin-1-yl]carbonyl}cyclohexyl)-1H-indole-5-carboxamide]
< 1	COC[C@@H]1Nc2ccccc2[C@H]2[C@@H]1CCN2C(=O)[C@H]1CCCC[C@H]1NC(=O)c1ccc2[nH]nnc2c1 [Example 219, N-((1R,2S)-2-{[(3aR,4R,9bR)-4-(methoxymethyl)-2,3,3a,4,5,9b-hexahydro-1H-pyrrolo[3,2-c]quinolin-1-yl]carbonyl}cyclohexyl)-1H-1,2,3-benzotriazole-5-carboxamide]
< 1	COC[C@@H]1Nc2ccccc2[C@H]2[C@@H]1CCN2C(=O)[C@H]1CCCC[C@H]1NC(=O)c1cc2ccccc2[nH]1 [Example 229, N-((1R,2S)-2-{[(3aR,4R,9bR)-4-(Methoxymethyl)-2,3,3a,4,5,9b-hexahydro-1H-pyrrolo[3,2-c]quinolin-1-yl]carbonyl}cyclohexyl)-4H-indole-2-carboxamide]
< 10	COC[C@@H]1Nc2ccccc2[C@H]2[C@@H]1CCN2C(=O)[C@H]1CCCC[C@H]1NC(=O)c1ccccc1C#N [Example 232, 2-Cyano-N-((1R,2S)-2-{[(3aR,4R,9bR)-4-(methoxymethyl)-2,3,3a,4,5,9b-hexahydro-1H-pyrrolo[3,2-c]quinolin-1-yl]carbonyl}cyclohexyl)benzamide]
< 10	COC[C@@H]1Nc2ccccc2[C@H]2[C@@H]1CCN2C(=O)[C@H]1CCCC[C@H]1NC(=O)c1cccc(C#N)c1 [Example 233, 3-Cyano-N-((1R,2S)-2-{[(3aR,4R,9bR)-4-(methoxymethyl)-2,3,3a,4,5,9b-hexahydro-1H-pyrrolo[3,2-c]quinolin-1-yl]carbonyl}cyclohexyl)benzamide]
< 1	COC[C@@H]1Nc2ccccc2[C@H]2[C@@H]1CCN2C(=O)[C@H]1CCCC[C@H]1NC(=O)c1ccc(OC(F)F)cc1 [Example 234, 4-(Difluoromethoxy)-N-((1R,2S)-2-{[(3aR,4R,9bR)-4-(methoxymethyl)-2,3,3a,4,5,9b-hexahydro-1H-pyrrolo[3,2-c]quinolin-1-yl]carbonyl}cyclohexyl)benzamide]
< 1	COC[C@@H]1Nc2ccccc2[C@H]2[C@@H]1CCN2C(=O)[C@H]1CCCC[C@H]1NC(=O)c1nc2ccccc2[nH]1 [Example 237, N-((1R,2S)-2-{[(3aR,4R,9bR)-4-(Methoxymethyl)-2,3,3a,4,5,9b-hexahydro-1H-pyrrolo[3,2-c]quinolin-1-yl]carbonyl}cyclohexyl)-1H-benzimidazole-2-carboxamide]
< 10	COC[C@@H]1Nc2ccccc2[C@H]2[C@@H]1CCN2C(=O)[C@H]1CCCC[C@H]1NC(=O)CNc1ccccc1 [Example 238, N^1-((1R,2S)-2-{[(3aR,4R,9bR)-4-(Methoxymethyl)-2,3,3a,4,5,9b-hexahydro-1H-pyrrolo[3,2-c]quinolin-1-yl]carbonyl}cyclohexyl)-N^2-phenylglycinamide]
< 1	CNc1ccc(C(=O)N[C@@H]2CCCC[C@@H]2C(=O)N2CC[C@@H]3[C@H](COC)Nc4ccccc4[C@@H]32)cc1 [Example 239, N-((1R,2S)-2-{[(3aR,4R,9bR)-4-(Methoxymethyl)-2,3,3a,4,5,9b-hexahydro-1H-pyrrolo[3,2-c]quinolin-1-yl]carbonyl}cyclohexyl)-4-(methylamino)benzamide]
< 10	COC[C@@H]1Nc2ccccc2[C@H]2[C@@H]1CCN2C(=O)[C@H]1CCCC[C@H]1NC(=O)c1cccc(N(C)C)c1 [Example 241, 3-(Dimethylamino)-N-((1R,2S)-2-{[(3aR,4R,9bR)-4-(methoxymethyl)-2,3,3a,4,5,9b-hexahydro-1H-pyrrolo[3,2-c]quinolin-1-yl]carbonyl}cyclohexyl)benzamide]
< 10	COC[C@@H]1Nc2ccccc2[C@H]2[C@@H]1CCN2C(=O)[C@H]1CCCC[C@H]1NC(=O)c1c[nH]c2ccccc12 [Example 244, N-((1R,2S)-2-{[(3aR,4R,9bR)-4-(Methoxymethyl)-2,3,3a,4,5,9b-hexahydro-1H-pyrrolo[3,2-c]quinolin-1-yl]carbonyl}cyclohexyl)-1H-indole-3-carboxamide]
< 10	COC[C@@H]1Nc2ccccc2[C@H]2[C@@H]1CCN2C(=O)[C@H]1CCCC[C@H]1NC(=O)c1ccc(S(N)(=O)=O)cc1 [Example 245, 4-(Aminosulfonyl)-N-((1R,2S)-2-{[(3aR,4R,9bR)-4-(methoxymethyl)-2,3,3a,4,5,9b-hexahydro-1H-pyrrolo[3,2-c]quinolin-1-yl]carbonyl}cyclohexyl)benzamide]
< 10	COC[C@@H]1Nc2ccccc2[C@H]2[C@@H]1CCN2C(=O)[C@H]1CCCC[C@H]1NC(=O)c1ccc2nccnc2c1 [Example 246, N-((1R,2S)-2-{[(3aR,4R,9bR)-4-(Methoxymethyl)-2,3,3a,4,5,9b-hexahydro-1H-pyrrolo[3,2-c]quinolin-1-yl]carbonyl}cyclohexyl)quinoxaline-6-carboxamide]

Source: patent publication US7943770B2, “Fused quinoline derivative and use thereof” (Takeda Pharmaceutical Company Limited, priority 2004, dated 2011)
